The compounds below were run on KB 3.1 (DSMZ ACC 158) cells (assay: Cell proliferation assay under folate free conditions). Settings: RPMI-medium without folic acid + 10% dialyzed fetal calf serum; MTT assay after 1, 2 and 5 days (day of the value not given); read-out: IC50 [nM] KB 3.1 (Folate-Ratjadone Conjugates).
Format: cell-based
Method: KB 3.1 (DSMZ ACC 158) cells were cultivated at 37° C. and 10% C002 in RMPI-medium without folic acid (Gibco) with 10% fetal calf serum (Gibco). 120 μL of suspended cells (100.000/mL) were seeded in wells of 96-well plates and after 24 h at 37° C. and 10% CO2 the medium was removed, the cells were washed with PBS and RPMI-medium without folic acid (Gibco)+10% dialyzed fetal calf serum (Sigma) were added to the cells, before after additional 24 h at 37° C. and 10% C002 60 μL of serial dilutions of the test compound were given to cells. After 1, 2 and 5 days of incubation growth inhibition (IC50) was determined using an MTT assay.^[64]

| SMILES | IC50 [nM] |
| --- | --- |
| C/C=C/[C@@H]1O[C@H]([C@@H](/C=C/C=C(\C)C[C@@H](C)/C=C(C)\C=C\[C@H]2CC=CC(=O)O2)NC(=O)OCCc2cn(CCC[C@H](NC(=O)CC[C@H](NC(=O)CC[C@H](NC(=O)c3ccc(NCc4cnc5nc(N)nc(O)c5n4)cc3)C(=O)O)C(=O)O)C(=O)O)nn2)C[C@@H](O)[C@@H]1C [FA-7-16R-Aminoratjadone, N^2-(4-(((2-amino-4-hydroxypteridin-6-yl)methyl)amino)benzoyl)-N^5—((S)-1-carboxy-4-(((S)-1-carboxy-4-(4-(2-((((1R,2E,4E,7R,8Z,10E)-1-((2S,4R,5S,6S)-4-hydroxy-5-methyl-6-((E)-prop-1-en-1-yl)tetrahydro-2H-pyran-2-yl)-5,7,9-trimethyl-11-((R)-6-oxo-3,6-dihydro-2H-pyran-2-yl)undeca-2,4,8,10-tetraen-1-yl)carbamoyl)oxy)ethyl)-1H-1,2,3-triazol-1-yl)butyl)amino)-4-oxobutyl)-L-glutamine] | 190 |
| C/C=C/[C@@H]1O[C@H]([C@@H](/C=C/C=C(\C)C[C@@H](C)/C=C(C)\C=C\[C@H]2CC=CC(=O)O2)NC(=O)OCc2ccc(NC(=O)[C@H](CCCNC(N)=O)NC(=O)[C@@H](NC(=O)OC[C@@H]3[C@@H]4CCc5nnn(CCC[C@H](NC(=O)CC[C@H](NC(=O)CC[C@H](NC(=O)c6ccc(NCc7cnc8nc(N)nc(O)c8n7)cc6)C(=O)O)C(=O)O)C(=O)O)c5CC[C@@H]43)C(C)C)cc2)C[C@@H](O)[C@@H]1C [FA-7-Val-Cit-PABA-16R-Aminoratjadone] | 34.3 |
| C/C=C/[C@@H]1O[C@H]([C@@H](/C=C/C=C(\C)C[C@@H](C)/C=C(C)\C=C\[C@H]2CC=CC(=O)O2)NC(=O)OCCc2cn(-c3ccc(C(=O)NCCCC[C@H](NC(=O)CC[C@H](NC(=O)c4ccc(NCc5cnc6nc(N)nc(O)c6n5)cc4)C(=O)O)C(=O)N[C@H](CCCCN)C(=O)O)cc3)nn2)C[C@@H](O)[C@@H]1C [FA-8-16R-Aminoratjadone, N^2—((S)-4-(4-(((2-amino-4-hydroxypteridin-6-yl)methyl)amino)benzamido)-4-carboxybutanoyl)-N^6-(4-(4-(2-((((1R,2E,4E,7R,8Z,10E)-1-((2S,4R,5S,6S)-4-hydroxy-5-methyl-6-((E)-prop-1-en-1-yl)tetrahydro-2H-pyran-2-yl)-5,7,9-trimethyl-11-((R)-6-oxo-3,6-dihydro-2H-pyran-2-yl)undeca-2,4,8,10-tetraen-1-yl)carbamoyl)oxy)ethyl)-1H-1,2,3-triazol-1-yl)benzoyl)-L-lysyl-D-lysine] | 129 |
| C/C=C/[C@@H]1O[C@H]([C@@H](/C=C/C=C(\C)C[C@@H](C)/C=C(C)\C=C\[C@H]2CC=CC(=O)O2)NC(=O)OCc2ccc(NC(=O)[C@H](CCCNC(N)=O)NC(=O)[C@@H](NC(=O)OC[C@@H]3[C@@H]4CCc5nnn(-c6ccc(C(=O)NCCCC[C@H](NC(=O)CC[C@H](NC(=O)c7ccc(NCc8cnc9nc(N)nc(O)c9n8)cc7)C(=O)O)C(=O)N[C@H](CCCCN)C(=O)O)cc6)c5CC[C@@H]43)C(C)C)cc2)C[C@@H](O)[C@@H]1C [FA-8-Val-Cit-PABA-16R-Aminoratjadone] | 39.9 |
| C/C=C/[C@@H]1O[C@H]([C@@H](/C=C/C=C(\C)C[C@@H](C)/C=C(C)\C=C\[C@H]2CC=CC(=O)O2)NC(=O)OCCc2cn(CCC[C@H](NC(=O)CC[C@H](NC(=O)c3ccc(NCc4cnc5nc(N)nc(O)c5n4)cc3)C(=O)O)C(=O)N[C@H](CCCCN)C(=O)O)nn2)C[C@@H](O)[C@@H]1C [FA-9-16R-Aminoratjadone, ((S)-2-((S)-4-(4-(((2-amino-4-hydroxypteridin-6-yl)methyl)amino)benzamido)-4-carboxybutanamido)-5-(4-(2-((((1R,2E,4E,7R,8Z,10E)-1-((2S,4R,5S,6S)-4-hydroxy-5-methyl-6-((E)-prop-1-en-1-yl)tetrahydro-2H-pyran-2-yl)-5,7,9-trimethyl-11-((R)-6-oxo-3,6-dihydro-2H-pyran-2-yl)undeca-2,4,8,10-tetraen-1-yl)carbamoyl)oxy)ethyl)-1H-1,2,3-triazol-1-yl)pentanoyl)-D-lysine] | 47.6 |
| C/C=C/[C@@H]1O[C@H]([C@@H](/C=C/C=C(\C)C[C@@H](C)/C=C(C)\C=C\[C@H]2CC=CC(=O)O2)NC(=O)OCc2ccc(NC(=O)[C@H](CCCNC(N)=O)NC(=O)[C@@H](NC(=O)OC[C@@H]3[C@@H]4CCc5nnn(CCC[C@H](NC(=O)CC[C@H](NC(=O)c6ccc(NCc7cnc8nc(N)nc(O)c8n7)cc6)C(=O)O)C(=O)N[C@H](CCCCN)C(=O)O)c5CC[C@@H]43)C(C)C)cc2)C[C@@H](O)[C@@H]1C [FA-9-Val-Cit-PABA-16R-Aminoratjadone] | 50.9 |
| C/C=C/[C@@H]1O[C@H]([C@@H](/C=C/C=C(\C)C[C@@H](C)/C=C(C)\C=C\[C@H]2CC=CC(=O)O2)NC(=O)OCCc2cn(CCC[C@H](NC(=O)[C@@H](CC(=O)O)NC(=O)[C@@H](CC(=O)O)NC(=O)[C@@H](CC(=O)O)NC(=O)CC[C@H](NC(=O)c3ccc(NCc4cnc5nc(N)nc(O)c5n4)cc3)C(=O)O)C(=O)N[C@H](CC(=O)O)C(=O)N[C@H](CC(=O)O)C(=O)N[C@H](CCCCN)C(=O)O)nn2)C[C@@H](O)[C@@H]1C [FA-10-16R-Aminoratjadone] | 708 |
| C/C=C/[C@@H]1O[C@H]([C@@H](/C=C/C=C(\C)C[C@@H](C)/C=C(C)\C=C\[C@H]2CC=CC(=O)O2)NC(=O)OCc2ccc(NC(=O)[C@H](CCCNC(N)=O)NC(=O)[C@@H](NC(=O)OC[C@@H]3[C@@H]4CCc5nnn(CCC[C@H](NC(=O)[C@@H](CC(=O)O)NC(=O)[C@@H](CC(=O)O)NC(=O)[C@@H](CC(=O)O)NC(=O)CC[C@H](NC(=O)c6ccc(NCc7cnc8nc(N)nc(O)c8n7)cc6)C(=O)O)C(=O)N[C@H](CC(=O)O)C(=O)N[C@H](CC(=O)O)C(=O)N[C@H](CCCCN)C(=O)O)c5CC[C@@H]43)C(C)C)cc2)C[C@@H](O)[C@@H]1C [FA-10-Val-Cit-PABA-16R-Aminoratjadone] | 35.3 |
| C/C=C/[C@@H]1O[C@H]([C@@H](/C=C/C=C(\C)C[C@@H](C)/C=C(C)\C=C\[C@H]2CC=CC(=O)O2)NC(=O)OCc2ccc(NC(=O)[C@H](CCCNC(N)=O)NC(=O)[C@@H](NC(=O)OC[C@@H]3[C@@H]4CCc5nnn(CCC[C@H](NC(=O)[C@@H](CC(=O)O)NC(=O)[C@@H](CC(=O)O)NC(=O)[C@H](CCCn6nnc7c6CC[C@H]6[C@@H](CC7)[C@H]6COC(=O)N[C@H](C(=O)N[C@@H](CCCNC(N)=O)C(=O)Nc6ccc(COC(=O)N[C@H](/C=C/C=C(\C)C[C@@H](C)/C=C(C)\C=C\[C@H]7CC=CC(=O)O7)[C@@H]7C[C@@H](O)[C@H](C)[C@H](/C=C/C)O7)cc6)C(C)C)NC(=O)[C@@H](CC(=O)O)NC(=O)[C@@H](CC(=O)O)NC(=O)[C@H](CCCn6nnc7c6CC[C@H]6[C@@H](CC7)[C@H]6COC(=O)N[C@H](C(=O)N[C@@H](CCCNC(N)=O)C(=O)Nc6ccc(COC(=O)N[C@H](/C=C/C=C(\C)C[C@@H](C)/C=C(C)\C=C\[C@H]7CC=CC(=O)O7)[C@@H]7C[C@@H](O)[C@H](C)[C@H](/C=C/C)O7)cc6)C(C)C)NC(=O)[C@@H](CC(=O)O)NC(=O)[C@@H](CC(=O)O)NC(=O)CC[C@H](NC(=O)c6ccc(NCc7cnc8nc(N)nc(O)c8n7)cc6)C(=O)O)C(=O)O)c5CC[C@@H]43)C(C)C)cc2)C[C@@H](O)[C@@H]1C [FA-11-(Val-Cit-PABA-16R-Aminoratjadone)3] | 45 |
